In PubChem BioAssay AID2060331 (Molecular Pharmacology Branch, DTP, NCI, 2025):
Where “and” joins values, the source holds several entries; their conditions need not be identical. Equal values may be shown once.

System: Hs578T multi-cell spheroids, viability
Assay: Anticancer human tumor Hs578T cell line growth inhibition [IpAb];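 note: drug exposure lasted 7 days before readout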
Settings: for viability, T/C: stronger effect = lower value
In short: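 Multi-cell spheroids of 60% tumour cells, 25% HUVEC and 15% MSC in ultra-low-attachment U-bottom wells, treated with agents combined with ipatasertib or abemaciclib. Half-log ranges top out near clinical Cmax, or 10 microM when Cmax is unknown.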

[1] = curve of first compound, second compound 0.1 µM
[2] = curve of first compound, second compound 0.316 µM
[3] = curve of first compound, second compound 1 µM
[4] = curve of first compound, second compound 3.16 µM
[5] = curve of first compound, second compound 10 µM
[6] = second compound 0.1 µM, first compound 0.0316 µM
[7] = second compound 0.1 µM, first compound 0.1 µM
[8] = second compound 0.1 µM, first compound 0.316 µM
[9] = second compound 0.1 µM, first compound 1 µM
[10] = second compound 0.1 µM, first compound 3.16 µM
[11] = second compound 0.1 µM, first compound 10 µM
[12] = second compound 0.316 µM, first compound 0.0316 µM
[13] = second compound 0.316 µM, first compound 0.1 µM
[14] = second compound 0.316 µM, first compound 0.316 µM
[15] = second compound 0.316 µM, first compound 1 µM
[16] = second compound 0.316 µM, first compound 3.16 µM
[17] = second compound 0.316 µM, first compound 10 µM
[18] = second compound 1 µM, first compound 0.0316 µM
[19] = second compound 1 µM, first compound 0.1 µM
[20] = second compound 1 µM, first compound 0.316 µM
[21] = second compound 1 µM, first compound 1 µM
[22] = second compound 1 µM, first compound 3.16 µM
[23] = second compound 1 µM, first compound 10 µM
[24] = second compound 3.16 µM, first compound 0.0316 µM
[25] = second compound 3.16 µM, first compound 0.1 µM
[26] = second compound 3.16 µM, first compound 0.316 µM
[27] = second compound 3.16 µM, first compound 1 µM
[28] = second compound 3.16 µM, first compound 3.16 µM
[29] = second compound 3.16 µM, first compound 10 µM
[30] = second compound 10 µM, first compound 0.0316 µM
[31] = second compound 10 µM, first compound 0.1 µM
[32] = second compound 10 µM, first compound 0.316 µM
[33] = second compound 10 µM, first compound 1 µM
[34] = second compound 10 µM, first compound 3.16 µM
[35] = second compound 10 µM, first compound 10 µM

What does the source list for `C=CC(=O)N1CCN(c2nc(=O)n(-c3c(C)ccnc3C(C)C)c3nc(-c4c(O)cccc4F)c(F)cc23)C(C)C1` (configuration not stated) + CC(C)NCC(C(=O)N1CCN(c2ncnc3c2C(C)CC3O)CC1)c1ccc(Cl)cc1?
IC50 [1]: > 10000 nM; IC50 [2]: > 10000 nM; IC50 [3]: > 10000 nM; IC50 [4]: 3950 nM; IC50 [5]: < 31.6 nM; viability, T/C [6]: 94.2%; viability, T/C [7]: 103%; viability, T/C [8]: 102%; viability, T/C [9]: 112%; viability, T/C [10]: 94.4%; viability, T/C [11]: 72%; viability, T/C [12]: 83.7%; viability, T/C [13]: 90.6%; viability, T/C [14]: 90.1%; viability, T/C [15]: 89.5%; viability, T/C [16]: 84%; viability, T/C [17]: 65.5%; viability, T/C [18]: 70.8%; viability, T/C [19]: 70.9%; viability, T/C [20]: 69.3%; viability, T/C [21]: 75.1%; viability, T/C [22]: 66.2%; viability, T/C [23]: 55.1%; viability, T/C [24]: 56.7%; viability, T/C [25]: 59.6%; viability, T/C [26]: 55.1%; viability, T/C [27]: 54.5%; viability, T/C [28]: 52.8%; viability, T/C [29]: 41.9%; viability, T/C [30]: 45.1%; viability, T/C [31]: 50.4%; viability, T/C [32]: 46.9%; viability, T/C [33]: 49.1%; viability, T/C [34]: 46.5%; viability, T/C [35]: 20.4%

How did the viability, T/C (compound 0.00316 µM) turn out when `COc1c(OCCCN2CCOCC2)ccc2c3n(c(=NC(=O)c4cnc(N)nc4)nc12)CCN3` was run?
Its viability, T/C is 88.8% and 99.7%.

What about the viability, T/C (compound 0.01 µM) of the same compound?
The viability, T/C was 66.7% and 76.7%.

What about the viability, T/C (compound 0.0316 µM) of the same compound?
The viability, T/C was 47.2% and 49%.

What about the viability, T/C (compound 0.1 µM) of the same compound?
The viability, T/C was 29.4%.

What about the viability, T/C (compound 0.316 µM) of the same compound?
The viability, T/C was 14.3% and 13.7%.

And the viability, T/C (compound 1 µM)?
The viability, T/C was 8.6% and 5.54%.

What about the IC50 (curve of compound) of the same compound?
Its IC50 is 26 nM and 31.8 nM.

How did the IC50 [1] turn out when `CC(C)(C)c1cnc(CSc2cnc(NC(=O)C3CCNCC3)s2)o1` + CC(C)NCC(C(=O)N1CCN(c2ncnc3c2C(C)CC3O)CC1)c1ccc(Cl)cc1 was run?
The IC50 was 180 nM.

And the IC50 [2]?
The IC50 was 173 nM.

And the IC50 [3]?
The IC50 was 156 nM.

And the IC50 [4]?
Its IC50 is 108 nM.

And the IC50 [5]?
The IC50 was 33.3 nM.

And the viability, T/C (second compound 0.1 µM, first compound 0.00949 µM)?
Its viability, T/C is 104%.

What about the viability, T/C (second compound 0.1 µM, first compound 0.03 µM) of the same compound?
The viability, T/C was 114%.

What about the viability, T/C (second compound 0.1 µM, first compound 0.0949 µM) of the same compound?
The viability, T/C was 109%.

And the viability, T/C (second compound 0.1 µM, first compound 0.3 µM)?
The viability, T/C was 2.64%.

And the viability, T/C (second compound 0.1 µM, first compound 0.949 µM)?
Its viability, T/C is 2.52%.

What about the viability, T/C (second compound 0.1 µM, first compound 3 µM) of the same compound?
The viability, T/C was 3.3%.

What about the viability, T/C (second compound 0.316 µM, first compound 0.00949 µM) of the same compound?
The viability, T/C was 93.5%.

What about the viability, T/C (second compound 0.316 µM, first compound 0.03 µM) of the same compound?
The viability, T/C was 104%.

And the viability, T/C (second compound 0.316 µM, first compound 0.0949 µM)?
The viability, T/C was 107%.

What about the viability, T/C (second compound 0.316 µM, first compound 0.3 µM) of the same compound?
The viability, T/C was 2.26%.

And the viability, T/C (second compound 0.316 µM, first compound 0.949 µM)?
Its viability, T/C is 2.29%.

And the viability, T/C (second compound 0.316 µM, first compound 3 µM)?
The viability, T/C was 2.23%.

What about the viability, T/C (second compound 1 µM, first compound 0.00949 µM) of the same compound?
Its viability, T/C is 80.7%.

And the viability, T/C (second compound 1 µM, first compound 0.03 µM)?
Its viability, T/C is 88.7%.

What about the viability, T/C (second compound 1 µM, first compound 0.0949 µM) of the same compound?
The viability, T/C was 89.5%.

What about the viability, T/C (second compound 1 µM, first compound 0.3 µM) of the same compound?
Its viability, T/C is 2.31%.

What about the viability, T/C (second compound 1 µM, first compound 0.949 µM) of the same compound?
The viability, T/C was 2.45%.

What about the viability, T/C (second compound 1 µM, first compound 3 µM) of the same compound?
The viability, T/C was 2.32%.

What about the viability, T/C (second compound 3.16 µM, first compound 0.00949 µM) of the same compound?
Its viability, T/C is 60.5%.

What about the viability, T/C (second compound 3.16 µM, first compound 0.03 µM) of the same compound?
Its viability, T/C is 69.6%.

And the viability, T/C (second compound 3.16 µM, first compound 0.0949 µM)?
The viability, T/C was 56.1%.

And the viability, T/C (second compound 3.16 µM, first compound 0.3 µM)?
Its viability, T/C is 2.25%.

What about the viability, T/C (second compound 3.16 µM, first compound 0.949 µM) of the same compound?
The viability, T/C was 3.36%.

What about the viability, T/C (second compound 3.16 µM, first compound 3 µM) of the same compound?
Its viability, T/C is 3.32%.

What about the viability, T/C (second compound 10 µM, first compound 0.00949 µM) of the same compound?
The viability, T/C was 49.3%.

What about the viability, T/C (second compound 10 µM, first compound 0.03 µM) of the same compound?
The viability, T/C was 57.7%.

What about the viability, T/C (second compound 10 µM, first compound 0.0949 µM) of the same compound?
Its viability, T/C is 14.8%.

What about the viability, T/C (second compound 10 µM, first compound 0.3 µM) of the same compound?
The viability, T/C was 1.74%.

What about the viability, T/C (second compound 10 µM, first compound 0.949 µM) of the same compound?
The viability, T/C was 2.09%.

And the viability, T/C (second compound 10 µM, first compound 3 µM)?
Its viability, T/C is 2.94%.

How did the IC50 [1] turn out when `Cn1nccc1Nc1nccc(-c2ccn(C(CO)c3ccc(Cl)c(F)c3)c(=O)c2)n1` (configuration not stated) + CC(C)NCC(C(=O)N1CCN(c2ncnc3c2C(C)CC3O)CC1)c1ccc(Cl)cc1 was run?
The IC50 was 4560 nM.

What about the IC50 [2] of the same compound?
Its IC50 is 2610 nM.

What about the IC50 [3] of the same compound?
The IC50 was 1520 nM.

What about the IC50 [4] of the same compound?
The IC50 was 626 nM.

What about the IC50 [5] of the same compound?
The IC50 was 138 nM.

What about the viability, T/C [6] of the same compound?
The viability, T/C was 106%.

What about the viability, T/C [7] of the same compound?
The viability, T/C was 109%.

And the viability, T/C [8]?
Its viability, T/C is 111%.

What about the viability, T/C [9] of the same compound?
The viability, T/C was 76.8%.

And the viability, T/C [10]?
The viability, T/C was 59.4%.

What about the viability, T/C [11] of the same compound?
The viability, T/C was 37.9%.

What about the viability, T/C [12] of the same compound?
Its viability, T/C is 91.5%.

What about the viability, T/C [13] of the same compound?
Its viability, T/C is 90.5%.

And the viability, T/C [14]?
The viability, T/C was 94.3%.

What about the viability, T/C [15] of the same compound?
The viability, T/C was 60.9%.

What about the viability, T/C [16] of the same compound?
The viability, T/C was 50.9%.

What about the viability, T/C [17] of the same compound?
The viability, T/C was 23.6%.

What about the viability, T/C [18] of the same compound?
The viability, T/C was 65.8%.

And the viability, T/C [19]?
Its viability, T/C is 73.5%.

What about the viability, T/C [20] of the same compound?
The viability, T/C was 77.7%.

What about the viability, T/C [21] of the same compound?
The viability, T/C was 54.3%.

And the viability, T/C [22]?
The viability, T/C was 36.2%.

And the viability, T/C [23]?
Its viability, T/C is 14.1%.

And the viability, T/C [24]?
The viability, T/C was 62.2%.

What about the viability, T/C [25] of the same compound?
Its viability, T/C is 61.6%.

And the viability, T/C [26]?
Its viability, T/C is 61.7%.

What about the viability, T/C [27] of the same compound?
The viability, T/C was 42.4%.

What about the viability, T/C [28] of the same compound?
The viability, T/C was 16.3%.

And the viability, T/C [29]?
Its viability, T/C is 2.55%.

What about the viability, T/C [30] of the same compound?
The viability, T/C was 48.1%.

What about the viability, T/C [31] of the same compound?
The viability, T/C was 55.6%.

And the viability, T/C [32]?
Its viability, T/C is 45.6%.

And the viability, T/C [33]?
The viability, T/C was 31.1%.

And the viability, T/C [34]?
Its viability, T/C is 3.87%.

And the viability, T/C [35]?
Its viability, T/C is 0.64%.
